In assay [1] the test system is vesicular stomatitis virus (VSV). The conditions noted are these: 16 h.
Assay [2] concerns the target viral glycoproteins (H and F); CD150. Description: beta-galactosidase complementation-based fusion assay, CD150 target cells. The note with it: for IC90: read-out: CD150 IC90.
The target of assay [3] is viral glycoproteins (H and F); Nectin-4 (Measles virus, UniProt Q786F3). Description: beta-galactosidase complementation-based fusion assay, Nectin-4 target cells.
The target of assay [4] is measles virus (MeV) fusion protein F, wild type, expressed on cells (measles virus) (UniProt Q786F3). Description: cell-based or functional assay.
For assay [5] the target is unchanged. Description: cell-based or functional assay. This is another data set of the same source.
[6] abbreviates: Nectin4 IC50, Table 3 (extended version).
Setting [7] is: IC50, Table 2 (salient peptides), Nectin-4 target cells.

Where two headings read alike, the source gives them in different places. Numbered stars: 1 amine (or outer) side, 2 acyl side, 3 side chain; on linkers, the order of the positions; unused ones are H or OH. Bridge positions count the residues as written; N and C are the ends. Square brackets hold non-standard residues; d marks the D form. Ends that are not written are not given here. Peptide text beside a SMILES is read from it. I, II: the chains in the order shown. * marks the point of attachment. X1 = CC(C)CCC[C@@H](C)[C@H]1CC[C@H]2[C@@H]3CC=C4C[C@@H](OCCN(CCNC(=O)CCOCCOCCOCCOCCNC(=O)CCCN5C(=O)CC([*:1])C5=O)CCNC(=O)CCOCCOCCOCCOCCNC(=O)CCCN5C(=O)CC([*:2])C5=O)CC[C@]4(C)[C@H]3CC[C@]12C; X2 = O=C(CCN1C(=O)CC([*:1])C1=O)NCCOCCOCCOCCOCCOCCOCCOCCOCCOCCOCCOCCNC(=O)CCN1C(=O)CC([*:2])C1=O; Cbz = O=C(OCc1ccccc1)* A value given as a limit tells only on which side of the number the result lay.

Take `CC[C@H](C)[C@H](NC(=O)[C@H](CC(C)C)NC(=O)[C@H](CO)NC(=O)[C@H](Cc1c[nH]cn1)NC(=O)[C@@H](NC(=O)[C@H](CC(C)C)NC(=O)[C@H](CO)NC(=O)[C@@H](NC(=O)[C@H](Cc1ccc(O)cc1)NC(=O)[C@H](CC(N)=O)NC(=O)[C@H](CC(N)=O)NC(=O)[C@@H](NC(=O)[C@H](CCC(=O)O)NC(=O)[C@H](CCCNC(=N)N)NC(=O)[C@H](CC(=O)O)NC(=O)[C@H](Cc1c[nH]c2ccccc12)NC(=O)[C@H](CCC(=O)O)NC(=O)[C@H](CCSC)NC(=O)[C@H](Cc1c[nH]c2ccccc12)NC(=O)CNC(=O)[C@H](CO)NC(=O)CNC(=O)[C@H](CO)NC(=O)CNC(=O)CNC(=O)[C@H](Cc1ccccc1)NC(=O)[C@@H](Cc1ccccc1)NC(=O)OCc1ccccc1)[C@@H](C)CC)[C@@H](C)O)[C@@H](C)CC)C(=O)N[C@@H](CCC(=O)O)C(=O)N[C@@H](CCC(=O)O)C(=O)N[C@@H](CO)C(=O)N[C@@H](CCC(N)=O)C(=O)N[C@@H](CC(N)=O)C(=O)N[C@@H](CCC(N)=O)C(=O)N[C@@H](CCC(N)=O)C(=O)N[C@@H](CCC(=O)O)C(=O)N[C@@H](CCCCN)C(=O)N[C@@H](CC(N)=O)C(=O)N[C@@H](CCC(=O)O)C(=O)N[C@@H](CCC(N)=O)C(=O)N[C@@H](CCC(=O)O)C(=O)N[C@@H](CC(C)C)C(=O)N[C@@H](CC(C)C)C(=O)NCC(=O)N[C@@H](CO)C(=O)NCC(=O)N[C@@H](CO)C(=O)NCC(=O)N[C@@H](CSC1CC(=O)N(CCCC(=O)NCCOCCOCCOCCOCCC(=O)NCCN(CCNC(=O)CCOCCOCCOCCOCCNC(=O)CCCN2C(=O)CC(SC[C@H](NC(=O)CNC(=O)[C@H](CO)NC(=O)CNC(=O)[C@H](CO)NC(=O)CNC(=O)[C@H](CC(C)C)NC(=O)[C@H](CC(C)C)NC(=O)[C@H](CCC(=O)O)NC(=O)[C@H](CCC(N)=O)NC(=O)[C@H](CCC(=O)O)NC(=O)[C@H](CC(N)=O)NC(=O)[C@H](CCCCN)NC(=O)[C@H](CCC(=O)O)NC(=O)[C@H](CCC(N)=O)NC(=O)[C@H](CCC(N)=O)NC(=O)[C@H](CC(N)=O)NC(=O)[C@H](CCC(N)=O)NC(=O)[C@H](CO)NC(=O)[C@H](CCC(=O)O)NC(=O)[C@H](CCC(=O)O)NC(=O)[C@@H](NC(=O)[C@H](CC(C)C)NC(=O)[C@H](CO)NC(=O)[C@H](Cc3c[nH]cn3)NC(=O)[C@@H](NC(=O)[C@H](CC(C)C)NC(=O)[C@H](CO)NC(=O)[C@@H](NC(=O)[C@H](Cc3ccc(O)cc3)NC(=O)[C@H](CC(N)=O)NC(=O)[C@H](CC(N)=O)NC(=O)[C@@H](NC(=O)[C@H](CCC(=O)O)NC(=O)[C@H](CCCNC(=N)N)NC(=O)[C@H](CC(=O)O)NC(=O)[C@H](Cc3c[nH]c4ccccc34)NC(=O)[C@H](CCC(=O)O)NC(=O)[C@H](CCSC)NC(=O)[C@H](Cc3c[nH]c4ccccc34)NC(=O)CNC(=O)[C@H](CO)NC(=O)CNC(=O)[C@H](CO)NC(=O)CNC(=O)CNC(=O)[C@H](Cc3ccccc3)NC(=O)[C@@H](Cc3ccccc3)NC(=O)OCc3ccccc3)[C@@H](C)CC)[C@@H](C)O)[C@@H](C)CC)[C@@H](C)CC)C(=O)O)C2=O)CCO[C@H]2CC[C@@]3(C)C(=CC[C@H]4[C@@H]5CC[C@H]([C@H](C)CCCC(C)C)[C@@]5(C)CC[C@@H]43)C2)C1=O)C(=O)O` (some centres unmarked) [FIP HIV]: in assay [1], the half-inhibitory concentration (IC50) (usually the concentration needed to halve the response being measured) was greater than 5 µM.
As for `CC(C)CCC[C@@H](C)[C@H]1CC[C@H]2[C@@H]3CC=C4C[C@@H](OCCN(CCNC(=O)CCOCCOCCOCCOCCNC(=O)CCCN5C(=O)CC(SC[C@H](NC(=O)CNC(=O)[C@H](Cc6ccccc6)NC(=O)[C@@H](Cc6ccccc6)NC(=O)OCc6ccccc6)C(=O)O)C5=O)CCNC(=O)CCOCCOCCOCCOCCNC(=O)CCCN5C(=O)CC(SC[C@H](NC(=O)CNC(=O)[C@H](Cc6ccccc6)NC(=O)[C@@H](Cc6ccccc6)NC(=O)OCc6ccccc6)C(=O)O)C5=O)CC[C@]4(C)[C@H]3CC[C@]12C` (some centres unmarked) [[FIP-peg4]2-chol (no GSGSG)], the IC50 is greater than 0.7 µM in assay [2] and greater than 1 µM in assay [3] (setting [6]). Further, the IC90 in assay [2] and in assay [3] (read-out: Nectin4 IC90) was greater than 1 µM each time.
On to `CC(C)CCC[C@@H](C)[C@H]1CC[C@H]2[C@@H]3CC=C4C[C@@H](OCCN(CCNC(=O)CCOCCOCCOCCOCCNC(=O)CCCN5C(=O)CC(SC[C@H](NC(=O)CNC(=O)[C@H](CO)NC(=O)CNC(=O)[C@H](CO)NC(=O)CNC(=O)CNC(=O)[C@H](Cc6ccccc6)NC(=O)[C@@H](Cc6ccccc6)NC(=O)OCc6ccccc6)C(=O)O)C5=O)CCNC(=O)CCOCCOCCOCCOCCNC(=O)CCCN5C(=O)CC(SC[C@H](NC(=O)CNC(=O)[C@H](CO)NC(=O)CNC(=O)[C@H](CO)NC(=O)CNC(=O)CNC(=O)[C@H](Cc6ccccc6)NC(=O)[C@@H](Cc6ccccc6)NC(=O)OCc6ccccc6)C(=O)O)C5=O)CC[C@]4(C)[C@H]3CC[C@]12C` (some centres unmarked) [[FIP-peg4]2-chol] (I: Cbz-[dF]FGGSGSGC-OH / II: Cbz-[dF]FGGSGSGC-OH; linker I:9-II:9 via X1), for which the results for the concentration for half-maximal inhibition (IC50) in assay [2] and in assay [3] (setting [7]) were 0.51 ± 0.36 µM and 0.452 ± 0.196 µM, respectively. The values for the IC90 in assay [2], in assay [3] and in assay [3] (read-out: Nectin4 IC90) were 0.927 ± 0.359 µM, 1.845 ± 0.016 µM and 1.845 ± 0.016 µM, respectively.
Consider `O=C(CCN1C(=O)CC(SC[C@H](NC(=O)CNC(=O)[C@H](Cc2ccccc2)NC(=O)[C@@H](Cc2ccccc2)NC(=O)OCc2ccccc2)C(=O)O)C1=O)NCCOCCOCCOCCOCCOCCOCCOCCOCCOCCOCCOCCNC(=O)CCN1C(=O)CC(SC[C@H](NC(=O)CNC(=O)[C@H](Cc2ccccc2)NC(=O)[C@@H](Cc2ccccc2)NC(=O)OCc2ccccc2)C(=O)O)C1=O` (some centres unmarked) [[FIP]2-peg11 (no GSGSG)], for which the IC50 in assay [2] is greater than 0.6 µM; in assay [3] (setting [7]), greater than 10 µM; in assay [3] (setting [6]), greater than 0.7 µM. Further, the figures for the concentration for an effect of 90% (IC90) in assay [2], in assay [3] and in assay [3] (read-out: Nectin4 IC90) were greater than 1 µM, greater than 10 µM and greater than 1 µM, respectively.
For the molecule `O=C(CCN1C(=O)CC(SC[C@H](NC(=O)CNC(=O)[C@H](CO)NC(=O)CNC(=O)[C@H](CO)NC(=O)CNC(=O)CNC(=O)[C@H](Cc2ccccc2)NC(=O)[C@@H](Cc2ccccc2)NC(=O)OCc2ccccc2)C(=O)O)C1=O)NCCOCCOCCOCCOCCOCCOCCOCCOCCOCCOCCOCCNC(=O)CCN1C(=O)CC(SC[C@H](NC(=O)CNC(=O)[C@H](CO)NC(=O)CNC(=O)[C@H](CO)NC(=O)CNC(=O)CNC(=O)[C@H](Cc2ccccc2)NC(=O)[C@@H](Cc2ccccc2)NC(=O)OCc2ccccc2)C(=O)O)C1=O` (some centres unmarked) [[FIP]2-peg11] (I: Cbz-[dF]FGGSGSGC-OH / II: Cbz-[dF]FGGSGSGC-OH; linker I:9-II:9 via X2), the IC50 in assay [2] is greater than 1 µM; in assay [3] (setting [6]), greater than 10 µM. Also, the IC90 (in general, the point of the concentration-response curve where the effect stands at 90%) in assay [2] was greater than 1 µM; in assay [3] (read-out: Nectin4 IC90), greater than 10 µM.
Take `CC(C)CCC[C@@H](C)[C@H]1CC[C@H]2[C@@H]3CC=C4C[C@@H](OC(=O)CCOCCOCCOCCOCCOCCOCCOCCOCCOCCOCCOCCOCCOCCOCCOCCOCCOCCOCCOCCOCCOCCOCCOCCOCCNC(=O)CSC[C@H](NC(=O)CNC(=O)[C@H](Cc5ccccc5)NC(=O)[C@@H](Cc5ccccc5)NC(=O)OCc5ccccc5)C(=O)O)CC[C@]4(C)[C@H]3CC[C@]12C` [peg24 chol [FIP] (no GSGSG)]: the IC90 in assay [2] was 0.544 ± 0.0348 µM; in assay [3] (read-out: Nectin4 IC90), 0.568 ± 0.186 µM.
As for FIP-HRC450-485 (peptide), in assay [4], the IC90, beta-galactosidase complementation-based fusion assay, Nectin-4 target cells was greater than 10 µM. In addition, the IC50, beta-galactosidase complementation-based fusion assay, Nectin-4 target cells in assay [5] is 4.24 µM.
As to FIP-HRC450-485-chol (peptide), in assay [4], the IC50, beta-galactosidase complementation-based fusion assay, Nectin-4 target cells amounted to 0.251 µM and the IC90, beta-galactosidase complementation-based fusion assay, Nectin-4 target cells is 0.446 µM. In assay [5], this molecule had an IC50, beta-galactosidase complementation-based fusion assay, Nectin-4 target cells of 0.214 µM and an IC90, beta-galactosidase complementation-based fusion assay, Nectin-4 target cells of 0.614 µM.
In assay [5], FIP-HRC450-485-peg4-chol (peptide) returned an IC50, beta-galactosidase complementation-based fusion assay, Nectin-4 target cells of 0.214 µM and an IC90, beta-galactosidase complementation-based fusion assay, Nectin-4 target cells of 0.614 µM.
In assay [4], FIP-chol (peptide) displayed an IC50, beta-galactosidase complementation-based fusion assay, Nectin-4 target cells greater than 10 µM and an IC90, beta-galactosidase complementation-based fusion assay, Nectin-4 target cells greater than 10 µM. In addition, in assay [5], the IC50, beta-galactosidase complementation-based fusion assay, Nectin-4 target cells is 4 µM and the IC90, beta-galactosidase complementation-based fusion assay, Nectin-4 target cells turned out to be 7.62 µM.
In assay [5], FIP-peg4-chol (peptide) gave an IC50, beta-galactosidase complementation-based fusion assay, Nectin-4 target cells of 4 µM and an IC90, beta-galactosidase complementation-based fusion assay, Nectin-4 target cells of 7.62 µM.
In assay [5], HRC450-485 (peptide) returned an IC50, beta-galactosidase complementation-based fusion assay, Nectin-4 target cells greater than 10 µM and an IC90, beta-galactosidase complementation-based fusion assay, Nectin-4 target cells greater than 10 µM.
Consider HRC450-485-chol (peptide), for which the IC50, beta-galactosidase complementation-based fusion assay, Nectin-4 target cells in assay [4] turned out to be 0.103 µM. In addition, the IC90, beta-galactosidase complementation-based fusion assay, Nectin-4 target cells is greater than 1 µM in assay [4] and greater than 7 µM in assay [5].
In assay [5], HRC450-485-peg4-chol (peptide) had an IC50, beta-galactosidase complementation-based fusion assay, Nectin-4 target cells of 0.123 µM and an IC90, beta-galactosidase complementation-based fusion assay, Nectin-4 target cells of 0.856 µM.
On to “I: Cbz-[dF]FGGSGSGVALDPIDISIVLNKIKSDLEESKEWIRRSNKILDSIGSGSGC / II: Cbz-[dF]FGGSGSGVALDPIDISIVLNKIKSDLEESKEWIRRSNKILDSIGSGSGC (linker I:50-II:50 via X1; N-terminus assumed) [FIP VI KI]”, for which the IC50 in assay [1] was greater than 5 µM.

The values are drawn from US20230014151A1, “COMBINATION ANTIVIRAL THERAPY FOR MEASLES” (The Trustees of Columbia University in the City of New York, priority 2019, published 2023).
